Measured values from patent US4912097A, “Novel 11 β-alkynylphenyl-10-nor-steroids” (Roussel Uclaf, priority 1986, dated 1990).
Like-named read-outs stand apart in the source and are kept apart here.

Key:
[1] = target: T1, Progestogen Receptor of the Rabbit Uterus (Oryctolagus cuniculus, UniProt P06186); test: Relative bonding affinity (ARL), progestogen receptor of the rabbit uterus; assay type: binding; settings: for relative bonding affinity (ARL), Progestogen: displacement of tritiated R
T1 construct: The uteruses were removed, weighed and homogenized at 0° C; from tissue; host or cells: uterus of non-adult, estradiol-treated rabbits; high-speed supernatant of the homogenate
T1 sequence (P06186 1-930): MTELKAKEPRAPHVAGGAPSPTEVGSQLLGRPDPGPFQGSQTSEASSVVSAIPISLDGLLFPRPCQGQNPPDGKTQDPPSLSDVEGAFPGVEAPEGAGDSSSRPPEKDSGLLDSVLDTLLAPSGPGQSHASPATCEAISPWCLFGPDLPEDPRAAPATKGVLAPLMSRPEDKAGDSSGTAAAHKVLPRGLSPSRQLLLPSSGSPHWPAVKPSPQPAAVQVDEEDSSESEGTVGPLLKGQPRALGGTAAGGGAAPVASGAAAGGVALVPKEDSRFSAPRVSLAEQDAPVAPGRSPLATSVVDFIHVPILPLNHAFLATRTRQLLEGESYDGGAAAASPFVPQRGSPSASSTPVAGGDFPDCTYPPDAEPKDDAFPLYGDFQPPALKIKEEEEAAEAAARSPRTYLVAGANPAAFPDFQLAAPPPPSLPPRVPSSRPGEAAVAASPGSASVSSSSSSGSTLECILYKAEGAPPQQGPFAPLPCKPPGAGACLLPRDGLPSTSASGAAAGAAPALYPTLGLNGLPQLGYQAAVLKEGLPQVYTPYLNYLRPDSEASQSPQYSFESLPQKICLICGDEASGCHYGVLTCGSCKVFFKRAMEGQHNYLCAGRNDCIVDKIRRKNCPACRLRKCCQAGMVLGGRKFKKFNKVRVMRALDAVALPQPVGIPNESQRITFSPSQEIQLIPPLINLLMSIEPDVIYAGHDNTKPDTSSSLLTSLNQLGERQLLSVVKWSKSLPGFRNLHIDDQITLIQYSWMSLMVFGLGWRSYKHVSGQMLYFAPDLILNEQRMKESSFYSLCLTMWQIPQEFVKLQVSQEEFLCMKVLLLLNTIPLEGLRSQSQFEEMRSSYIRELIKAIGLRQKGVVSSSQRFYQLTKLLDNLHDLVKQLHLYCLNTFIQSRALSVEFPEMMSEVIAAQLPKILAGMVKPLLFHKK
Procedure: (§1) Study of the activity upon the hormonal receptors.
Non-adult rabbits of about 1 kg are given a cutaneous application of 25 μg of estradiol and 5 days after this treatment, the animals were sacrificed. The uteruses were removed, weighed and homogenized at 0° C. with the aid of a Potter polytertrafluoroethylene dish in a buffered TS solution ([…], HCl pH 7.4) (1 g of tissue per 50 ml of TS). The homogenate was then ultracentrifuged (105,000 g×90 mm) at 0° C. Aliquots of the supernatent fluid thus obtained were incubated at 0° C. for a period (t) with a constant concentration (T) of tritiated Product R (17, 21-dimethyl-19-nor-Δ^-4,9 -pregnadien-3,20-dione) in the presence of increasing concentrations (0-2500. 10^-9 M) either of R cold, or of progesterone cold, or of the product to be tested cold. The concentration of tritiated R bound (B) was then measured in each incubate by the technique of adsorbtion on dextran charcoal.
(§2) The calculation of the relative bonding affinity (ARL) was identical for all the receptors.
(§3) The 2 curves were plotted as follows: the percentage of the tritiated hormone bound B/T as a function of the logarithm of the concentration of the reference hormone cold and B/T as a function of the logarithm of the concentration of the product tested cold.
(§4) The straight line of the equation I50 =(B/T max+B/T min)/2. B/T max=percentage of the tritiated hormone bound for one incubation of this tritiated hormone at the concentration (T) was determined. B/T min=percentage of the tritiated hormone bound for one incubation of this tritiated hormone at the concentration (T) in the presence of a great excess of the cold hormone (2500·10^-9 M).
(§5) The intersections of the straight line I50 and of the curves make it possible to estimate the concentrations of the cold reference hormone (CH) and of the cold product tested (CX) which inhibits 50% of the bonding of the tritiated hormone on the receptor. The relative affinity of the bonding (ARL) of the product tested was determined by the equation [formula]

[2] = target: T2, Gluoccocorticoid Receptor of the Rat Thymus (Rattus norvegicus, UniProt P06536); test: Relative bonding affinity (ARL), glucocorticoid receptor of the rat thymus; assay type: binding, rat (male Sprague Dawley EOPS); settings: for relative bonding affinity (ARL), Glucocorticoid: displacement of tritiated dexamethasone
T2 construct: The thymuses were removed and homogenized at 0° C; from tissue; host or cells: thymus of adrenalectomised male Sprague Dawley rats; high-speed supernatant of the homogenate
T2 sequence (P06536 1-795): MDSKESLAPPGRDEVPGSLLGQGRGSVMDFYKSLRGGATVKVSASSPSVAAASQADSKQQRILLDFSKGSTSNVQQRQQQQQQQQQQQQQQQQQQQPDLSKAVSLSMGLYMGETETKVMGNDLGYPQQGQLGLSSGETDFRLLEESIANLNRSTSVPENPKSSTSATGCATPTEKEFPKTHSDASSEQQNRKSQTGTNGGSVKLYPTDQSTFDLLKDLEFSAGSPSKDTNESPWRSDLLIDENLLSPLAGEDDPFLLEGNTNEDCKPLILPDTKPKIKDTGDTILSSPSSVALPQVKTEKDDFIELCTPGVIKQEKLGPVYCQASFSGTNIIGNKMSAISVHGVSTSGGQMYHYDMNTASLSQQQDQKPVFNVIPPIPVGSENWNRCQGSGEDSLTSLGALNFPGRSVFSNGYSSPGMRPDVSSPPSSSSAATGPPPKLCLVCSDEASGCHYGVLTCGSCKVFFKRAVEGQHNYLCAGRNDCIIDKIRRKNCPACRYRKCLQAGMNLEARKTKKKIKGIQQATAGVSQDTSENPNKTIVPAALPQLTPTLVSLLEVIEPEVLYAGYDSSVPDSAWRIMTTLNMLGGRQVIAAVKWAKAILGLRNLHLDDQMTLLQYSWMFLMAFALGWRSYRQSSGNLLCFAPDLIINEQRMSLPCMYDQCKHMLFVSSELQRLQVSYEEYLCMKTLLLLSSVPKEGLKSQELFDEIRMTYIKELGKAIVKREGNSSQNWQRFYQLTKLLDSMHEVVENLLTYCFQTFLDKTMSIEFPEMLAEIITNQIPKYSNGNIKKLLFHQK
Procedure: as §1
Male Sprague Dawley EOPS rats of 160 to 200 g were surrenalectomised and 4 to 8 days after this ablation, the animals were sacrificed. The thymuses were removed and homogenized at 0° C. in a 10 mM Tris, 0.25M saccharose, 2 mM dithiothreitol, HCl pH 7.4 buffer with the aid of a Potter polytetrafluoroethylene dish (1 g of tissue per 10 ml of TS). The homogenate was then ultracentrifuged (105,000×90 mn) at 0° C. Aliquots of the supernatent fluid thus obtained were incubated at 0° for a period (t) with a constant concentration (T) of tritiated dexamethasone in the presence of increasing concentrations (0-2500. 10^-9 M) either of cold dexamethasone, or of cold product to be tested. The concentration of tritiated dexamethasone bound (B) was then measured in each incubate by the technique of adsorption on dextran charcoal.
as §2, §3, §4, §5

[3] = tested on: gestation in the rat; test: Abortifacient activity in the rat; assay type: in vivo; settings: 3 mg/kg orally on Day D 9 of gestation; sacrificed 72 hours after treatment
Procedure: Day D 1 of gestation was determined by the presence of spermatozoids in the vaginal smears and on Day D 9 of gestation, the product was administered orally in suspension in carboxymethyl cellulose containing 0.5% of Tween. The animals were sacrificed 72 hours after the treatment and the uterus was examined to determine the state of gestation.

[4] = tested on: thymocytes of surrenalectomised rats; test: Antiglucocorticoidal activity: incorporation of tritiated uridine in thymocytes treated with dexamethasone; assay type: cell-based, rat; settings: for opposition to the dexamethasone-caused diminution of incorporation of tritiated uridine (in words) / inhibition at 1 µM / inhibition at 0.1 µM / inhibition at 0.01 µM: 5·10^-8 M dexamethasone; for inhibition at 1 µM / inhibition at 0.1 µM / inhibition at 0.01 µM: Rattus norvegicus, Thymocyte, read-out: % inhibition of the effect of Dexamethasone; for inhibition at 1 µM: product tested 10^-6 M; for inhibition at 0.1 µM: product tested 10^-7 M; for inhibition at 0.01 µM: product tested 10^-8 M
Procedure: The technique employed was derived from the method described by Daune et al in Molecular Pharmacology, Vol. 13, 948-955 (1977) "The relationship between glucocorticold structure and effects upon thymocytes", for the thymocytes of the mouse. The thymocytes of surrenalectomised rats were incubated at 37° C. for 3 hours in a nutrient medium containing 5·10^-8 M of dexamethasone, in the presence or absence of a product to be studied at different concentrations. One added tritiated uridine, and continued the incubation for one hour. The incubates were cooled and treated with a 5% solution of trichloroacetic acid. After filtration on Whatman GF/A paper, and washing three times with a 5% trichloroacetic acid solution, the radioactivity retained by the filter was determined.

[5] = 37° C., 3 hours + 1 hour tritiated uridine

Structure (SMILES)	affinity for the progestogen receptor (in words) [1]	relative bonding affinity (ARL), Progestogen ([1]; time of incubation at 0°: 2H)	relative bonding affinity (ARL), Progestogen ([1]; time of incubation at 0°: 24H)	affinity for the glucocorticoid receptor (in words) [2]	relative bonding affinity (ARL), Glucocorticoid ([2]; time of incubation at 0°: 4H)	relative bonding affinity (ARL), Glucocorticoid ([2]; time of incubation at 0°: 24H)	abortion (state of gestation) [3]	opposition to the dexamethasone-caused diminution of incorporation of tritiated uridine (in words) [4]	inhibition at 1 µM [4, 5] [%]	inhibition at 0.1 µM [4, 5] [%]	inhibition at 0.01 µM [4, 5] [%]	inhibition at 1 µM ([4]; symbol explained in footnote) [%]	incorporation of tritiated uridine (in words) ([4]; effect of glucocorticoid alone)
C#Cc1ccc([C@H]2C[C@@]3(C)[C@@H](CC[C@@]3(O)C#CC)[C@@H]3CCC4=CC(=O)CCC4=C32)cc1 [Example 3, 11β-(4-ethynylphenyl)-17α-(1-propynyl)-Δ^4,9-estradien-17β-ol-3-one]	very marked affinity	44	167	very marked affinity	107	124	complete abortion in all the animals	–	–	–	–	–	–
C#Cc1ccc([C@H]2C[C@@]3(C)[C@@H](CC[C@@]3(O)CC=C)[C@@H]3CCC4=CC(=O)CCC4=C32)cc1 [Example 4, 11β-(4-ethynylphenyl)-17α-allyl-Δ^4,9-estradien-17β-ol-3-one]	very marked affinity	41	124	very marked affinity	65	57	complete abortion in all the animals	oppose this effect	99	71	46	–	–
C#Cc1ccc([C@H]2C[C@@]3(C)[C@@H](CC[C@@]3(O)C#CCl)[C@@H]3CCC4=CC(=O)CCC4=C32)cc1 [Example 5, 17α-(chloroethynyl)-11β-(4-ethynylphenyl)-Δ^4,9-estradien-17β-ol-3-one]	very marked affinity	51	325	very marked affinity	84	153	complete abortion in all the animals	oppose this effect	–	84	47	100	–
C#Cc1ccc([C@H]2C[C@@]3(C)[C@@H](CC[C@@]3(O)C#CCl)[C@@H]3CCC4=CC(=O)CC[C@]45O[C@]235)cc1 [Example 8, 17α-chloroethynyl-9α,10α-epoxy-11β-(4-ethynylphenyl)-17-Δ^4-estraen-17β-ol-3-one]	very marked affinity	38	285	very marked affinity	175	233	complete abortion in all the animals	oppose this effect	77	37	7	–	–
C[C@@H]1C[C@H]2[C@@H]3CCC4=CC(=O)C=C[C@]4(C)[C@@]3(F)[C@@H](O)C[C@]2(C)[C@@]1(O)C(=O)CO [dexamethasone, reference compound]	–	–	–	–	–	–	–	–	–	–	–	–	cause a diminution of the incorporation of tritiated uridine
